Data set [1] concerns soluble epoxide hydrolase (sEH). In words: Fluorescent assay for mouse and human soluble epoxide hydrolase (CMNPC substrate). The format is biochemical. An excerpt: Fluorescent Assay for Mouse and Human Soluble Epoxide Hydrolase Recombinant mouse sEH (MsEH) and human sEH (HsEH) were produced in a baculovirus expression system as previously reported. Grant et al., J. Biol. Chem., 268:17628-17633 (1993); Beetham et al., Arch. Biochem. Biophys., 305:197-201 (1993). The expressed proteins were purified from cell lysate by affinity chromatography. Wixtrom et al., Anal. Biochem., 169:71-80 (1988). Protein concentration was quantified using the Pierce BCA assay using bovine serum albumin as the calibrating standard. The preparations were at least 97% pure as judged by SDS-PAGE and scanning densitometry. They contained no detectable esterase or glutathione transferase activity which can interfere with the assay. The assay was also evaluated with similar results in crude cell lysates or homogenate of tissues. The IC50s for each inhibitor were according to the following procedure: […] Jones P. D. et. al.; Analytical Biochemistry 2005; 343: pp. 66-75) Bis/Tris HCl 25 mM pH 7.0 containing 0.1 mg/mL of BSA (buffer […] at 0.25 mM in DMSO. Mother solution of enzyme in buffer A (Mouse sEH at 6 μg/mL and Human sEH at 5 μg/mL). Inhibitor dissolved in DMSO at the appropriate concentration. In a black 96 well plate, fill all the wells with 150 μL of buffer A. Add 2 μL of DMSO in well A2 and A3, and then add 2 μL of inhibitor solution in A1 and A4 through A12. Add 150 μL of buffer A in row A, then mix several time and transfer 150 μL to row B. Repeat this operation up to row H. The 150 μL removed from row H is discarded. Add 20 μL of buffer A in column 1 and 2, then add 20 μL of enzyme solution to column 3 to 12. Incubate the plate for 5 minutes in the plate reader at 30° C. During incubation prepare the working solution of substrate by mixing 3.68 mL of buffer A (4×0.920 mL) with 266 μL (2×133 μL) of substrate solution). At t=0, add 30 μL of working substrate solution with multi-channel pipette labeled “Briggs 303” and start the reading ([S]final: 5 μM). […] The velocities are used to analyze and calculate the IC50s.

Structures are written as SMILES.

Experimental findings from patent US20090270382A1, “Soluble epoxide hydrolase inhibitors” (Arete Therapeutics, Inc., priority 2008, published 2009) are described below.

The term % Inhibition denotes the share of the control response that was lost under treatment. A higher % Inhibition goes with a response far below the control. Usually melting point stands for the temperature, or range, at which the solid turns liquid.

`O=C(Nc1ccc(OC(F)(F)F)cc1)NC1CCN(C(=O)c2cncc(C(=O)O)c2)CC1` [Compound 1, 5-(4-(3-(4-(trifluoromethoxy)phenyl)ureido)piperidine-1-carbonyl)nicotinic acid] had a melting point of 211 to 213 °C. Moreover, the “% Inhibition” value in data set [1] (compound concentration 200 nM) is 94%.
The corresponding values for `O=C(Nc1ccc(OC(F)(F)F)cc1)NC1CCN(C(=O)c2ccc(C(F)(F)F)nc2)CC1` [Compound 2, 1-(4-(trifluoromethoxy)phenyl)-3-(1-(6-(trifluoromethyl)nicotinoyl)piperidin-4-yl)urea] are 206 to 208 °C and 97%.
`Cc1ncccc1C(=O)N1CCC(NC(=O)Nc2ccc(OC(F)(F)F)cc2)CC1` [Compound 3, 1-(1-(2-methylnicotinoyl)piperidin-4-yl)-3-(4-(trifluoromethoxy)phenyl)urea] gave a melting point of 107 to 109 °C. Moreover, in data set [1] (compound concentration 200 nM), the “% Inhibition” value is on record as 95%.
Taken in the same sequence, the figures for `Cc1ccc(C(=O)N2CCC(NC(=O)Nc3ccc(OC(F)(F)F)cc3)CC2)cn1` [Compound 4, 1-(1-(6-methylnicotinoyl)piperidin-4-yl)-3-(4-(trifluoromethoxy)phenyl)urea] were 206 to 208 °C and 97%.
Consider `COc1ncccc1C(=O)N1CCC(NC(=O)Nc2ccc(OC(F)(F)F)cc2)CC1` [Compound 5, 1-(1-(2-methoxynicotinoyl)piperidin-4-yl)-3-(4-(trifluoromethoxy)phenyl)urea], for which the melting point lay in the range of 92 to 94 °C. Further, the “% Inhibition” value in data set [1] (compound concentration 200 nM) is on record as 99%.
Consider `O=C(Nc1ccc(OC(F)(F)F)cc1)NC1CCN(S(=O)(=O)c2cccnc2)CC1` [Compound 6, 1-(1-(pyridin-3-ylsulfonyl)piperidin-4-yl)-3-(4-(trifluoromethoxy)phenyl)urea], for which the melting point lay in the range of 217 to 219 °C. For the same compound, the “% Inhibition” value in data set [1] (compound concentration 200 nM) turned out to be 96%.
Consider `O=C(Nc1ccc(OC(F)(F)F)cc1)NC1CCN(C(=O)c2cncc(F)c2)CC1` [Compound 7, 1-(1-(5-fluoronicotinoyl)piperidin-4-yl)-3-(4-(trifluoromethoxy)phenyl)urea], for which the melting point was 156 to 157 °C. In data set [1] (compound concentration 2000 nM), the “% Inhibition” value amounted to 98%.
On to `O=C(Nc1ccc(OC(F)(F)F)cc1)NC1CCN(C(=O)c2ccncc2)CC1` [Compound 8, 1-(1-isonicotinoylpiperidin-4-yl)-3-(4-(trifluoromethoxy)phenyl)urea], for which, in data set [1] (compound concentration 2000 nM), the “% Inhibition” value was found to be 99%.
As for `COc1ccc(C(=O)N2CCC(NC(=O)Nc3ccc(OC(F)(F)F)cc3)CC2)cn1` [Compound 9, 1-(1-(6-methoxynicotinoyl)piperidin-4-yl)-3-(4-(trifluoromethoxy)phenyl)urea], the melting point is 200 to 202 °C. Also, the “% Inhibition” value in data set [1] (compound concentration 2000 nM) is 99%.
Consider `O=C(Nc1cccc(OC(F)(F)F)c1)NC1CCN(C(=O)c2cccnc2)CC1` [Compound 10, 1-(1-nicotinoylpiperidin-4-yl)-3-(3-(trifluoromethoxy)phenyl)urea], for which, in data set [1] (compound concentration 2000 nM), the “% Inhibition” value is recorded as 99%.
Still for that read-out and setting: next, `O=C(Nc1ccc(OC(F)(F)F)cc1)NC1CCN(C(=O)Cc2ccccn2)CC1` [Compound 11, 1-(1-(2-(pyridin-2-yl)acetyl)piperidin-4-yl)-3-(4-(trifluoromethoxy)phenyl)urea]: 100%; `O=C(Nc1ccc(OC(F)(F)F)cc1)NC1CCN(C(=O)c2cccnc2)CC1` [Compound 12, 1-(1-nicotinoylpiperidin-4-yl)-3-(4-(trifluoromethoxy)phenyl)urea]: 100%.
As to `O=C(Nc1ccc(OC(F)(F)F)cc1)NC1CCN(C(=O)c2cnccc2C(F)(F)F)CC1` [Compound 13, 1-(4-(trifluoromethoxy)phenyl)-3-(1-(4-(trifluoromethyl)nicotinoyl)piperidin-4-yl)urea], the melting point is 89 to 91 °C. Also, in data set [1] (compound concentration 2000 nM), the “% Inhibition” value is listed as 99%.
Take `O=C(Nc1ccc(OC(F)(F)F)cc1)NC1CCN(C(=O)c2ccc(-c3ccccc3)nc2)CC1` [Compound 14, 1-(1-(6-phenylnicotinoyl)piperidin-4-yl)-3-(4-(trifluoromethoxy)phenyl)urea]: the melting point is 230 to 232 °C. For the same compound, in data set [1] (compound concentration 2000 nM), the “% Inhibition” value amounted to 100%.
In turn, `O=C(Nc1ccc(OC(F)(F)F)cc1)NC1CCN(C(=O)c2ccc(N3CCOCC3)nc2)CC1` [Compound 15, 1-(1-(6-morpholinonicotinoyl)pipendin-4-yl)-3-(4-(trifluoromethoxy)phenyl)urea] showed a melting point of 265 to 268 °C. For the same compound, the “% Inhibition” value in data set [1] (compound concentration 2000 nM) stood at 100%.
`O=C(Nc1ccc(OC(F)(F)F)cc1)NC1CCN(C(=O)c2ccc(Oc3ccccc3)nc2)CC1` [Compound 16, 1-(1-(6-phenoxynicotinoyl)piperidin-4-yl)-3-(4-(trifluoromethoxy)phenyl)urea] gave a melting point of 182 to 185 °C. In addition, the “% Inhibition” value in data set [1] (compound concentration 2000 nM) came out at 100%.
`CN1CCOc2cc(C(=O)N3CCC(NC(=O)Nc4ccc(OC(F)(F)F)cc4)CC3)cnc21` [Compound 17, 1-(1-(4-methyl-3,4-dihydro-2H-pyrido[3,2-b][1,4]oxazine-7-carbonyl)piperidin-4-yl)-3-(4-(trifluoromethoxy)phenyl)urea] had a melting point of 212 to 214 °C. Moreover, in data set [1] (compound concentration 2000 nM), the “% Inhibition” value was 100%.
`O=C(Nc1ccc(OC(F)(F)F)cc1)NC1CCN(C(=O)c2ccc(Cl)cn2)CC1` [Compound 18, 1-(1-(5-chloropicolinoyl)piperidin-4-yl)-3-(4-(trifluoromethoxy)phenyl)urea] returned a melting point of 213 to 215 °C. The “% Inhibition” value in data set [1] (compound concentration 2000 nM) worked out at 97%.
